Some results are limits rather than exact numbers.

The nature of data set [1]: Toxicity in high fat diet-STZ-induced diabetic Swiss albino mouse model assessed as changes in body weight at 0.2 mmol/Kg/day, po administered for 14 days (reference value: 26.6 to 27.8 g). It is filed as organism-based. To be noted: in vivo, 336 h, time 14 day.
The subject of data set [2] is Mus musculus. Description: Antidiabetic activity against high fat diet-STZ-induced diabetic Swiss albino mouse model assessed as reduction in blood glucose level at 0.2 mmol/Kg/day, po administered for 14 days. Type of data set: functional. To be noted: time 14 day.
For data set [3], the system named is Mus musculus. Description: Antidiabetic activity against high fat diet-STZ-induced diabetic Swiss albino mouse model assessed as reduction in blood glucose level at 0.2 mmol/Kg/day, po administered for 14 days relative to control. It is filed as functional. The arrangement: scale not given: the % may be the effect or the level left. To be noted: time 14 day.

Data set [4] concerns Mus musculus. Description: Antidiabetic activity against high fat diet-STZ-induced diabetic Swiss albino mouse model assessed as reduction in blood glucose level at 0.2 mmol/Kg/day, po administered for 14 days relative to glimepiride. Type of data set: functional. The arrangement: scale not given: the % may be the effect or the level left. To be noted: time 14 day.
Data set [5] in a line: Acute toxicity in Swiss albino mouse assessed as effect on mortality up to 2000 mg/kg, po administered for 14 days. To be noted: in vivo, 336 h, time 14 day. Type of data set: organism-based.
Data set [6] can be described thus: Acute toxicity in Swiss albino mouse assessed as effect on behavioural change up to 2000 mg/kg, po administered for 14 days. It is filed as organism-based. To be noted: in vivo, 336 h, time 14 day.
Data set [7] is described as follows: Acute toxicity in Swiss albino mouse assessed as effect on motor alterations up to 2000 mg/kg, po administered for 14 days. Type of data set: organism-based. To be noted: in vivo, 336 h, time 14 day.
Data set [8] can be described thus: Acute toxicity in Swiss albino mouse assessed as toxic symptoms up to 2000 mg/kg, po administered for 14 days. To be noted: in vivo, 336 h, time 14 day. It is filed as organism-based.

For the compound `CCOC(=O)C1=C(C)NC(C)=C(C(=O)OC(C)C)C1c1cccc2c1OCO2` (centres undefined), the Activity is 28.9 g in data set [1]; 297.39 mg/dL in the data set with Mus musculus [2]; 0.27% in the data set with Mus musculus [3]; <1% with Mus musculus [4]; “Non-Toxic” in data set [5]; “Non-Toxic” in data set [6]. Besides, the Activity result in data set [7] and in data set [8] was “Non-Toxic” in each case.

With `COC(=O)C1=C(C)NC(C)=C(C(=O)OCc2ccccc2)C1c1cccc2c1OCO2` (centres undefined), the Activity in data set [1] was 27.4 g; with Mus musculus [2], 168.33 mg/dL; in the data set on Mus musculus [3], 43.55%; in the data set with Mus musculus [4], 130%; in data set [5], “Non-Toxic”; in data set [6], “Non-Toxic”. Also, the Activity entry in data set [7] and in data set [8] was “Non-Toxic” throughout.

Consider `COC(=O)C1=C(C)NC(C)=C(C(=O)OC(C)(C)C)C1c1cccc2c1OCO2` (centres undefined), for which the Activity in data set [1] is 28.7 g; in the data set on Mus musculus [2], 297.34 mg/dL; in the data set with Mus musculus [3], 0.29%; in the data set with Mus musculus [4], <1%; in data set [5] it was “Non-Toxic”; in data set [6] it was “Non-Toxic”. Moreover, the Activity entry in data set [7] and in data set [8] was “Non-Toxic” each time.

`CCOC(=O)C1=C(C)NC(C)=C(C(=O)OC)C1c1ccc2c(c1)OCO2` (centres undefined): the Activity in data set [1] was 27.4 g; in the data set with Mus musculus [2], 138.36 mg/dL; with Mus musculus [3], 53.6%; in the data set with Mus musculus [4] it was 160%; in data set [5] it was “Non-Toxic”; in data set [6], “Non-Toxic”. Also, the Activity result in data set [7] and in data set [8] was “Non-Toxic” in each case.

`COC(=O)C1=C(C)NC(C)=C(C(=O)OC)C1c1ccc2c(c1)Cc1ccccc1-2`: the Activity in data set [1] was 29.2 g; in the data set on Mus musculus [2] it was 296.98 mg/dL; in the data set with Mus musculus [3] it was 0.41%; in the data set on Mus musculus [4], 1%; in data set [5] it was “Non-Toxic”; in data set [6], “Non-Toxic”. In addition, the Activity result in data set [7] and in data set [8] was “Non-Toxic” each time.

Take `CCOC(=O)C1=C(C)NC(C)=C(C(=O)OCc2ccccc2)C1c1ccc2c(c1)OCO2` (centres undefined): the Activity in data set [1] is 27.3 g; in the data set on Mus musculus [2], 169.35 mg/dL; in the data set with Mus musculus [3], 43.21%; in the data set with Mus musculus [4], 129%; in data set [5], “Non-Toxic”; in data set [6], “Non-Toxic”. The Activity entry in data set [7] and in data set [8] was “Non-Toxic” throughout.

As for `COC(=O)C1=C(C)NC(C)=C(C(=O)OC)C1c1cccc2c1OCO2`, the Activity was 26.6 g in data set [1]; 114.42 mg/dL in the data set on Mus musculus [2]; 61.63% in the data set on Mus musculus [3]; 184% in the data set with Mus musculus [4]; “Non-Toxic” in data set [5]; “Non-Toxic” in data set [6]. Moreover, the Activity entry in data set [7] and in data set [8] was “Non-Toxic” each time.

With `CC1=C(C(=O)OC(C)(C)C)C(c2ccc3c(c2)OCO3)C(C(=O)OC(C)(C)C)=C(C)N1`, the Activity in data set [1] was 26.9 g; in the data set on Mus musculus [2], 296.38 mg/dL; in the data set on Mus musculus [3], 0.61%; in the data set on Mus musculus [4] it was <1%.

For `COC(=O)C1=C(C)NC(C)=C(C(=O)OC(C)C)C1c1cccc2c1OCO2` (centres undefined), the Activity in data set [1] is 28.9 g; with Mus musculus [2], 238.23 mg/dL; in the data set with Mus musculus [3], 20.11%; in the data set on Mus musculus [4], 60%; in data set [5], “Non-Toxic”; in data set [6], “Non-Toxic”. The Activity entry in data set [7] and in data set [8] was “Non-Toxic” in each case.

Consider `COC(=O)C1=C(C)NC(C)=C(C(=O)OC(C)C)C1c1ccc2c(c1)OCO2` (centres undefined), for which the Activity in data set [1] is 28.3 g; in the data set with Mus musculus [2] it was 244.26 mg/dL; in the data set with Mus musculus [3] it was 18.09%; in the data set with Mus musculus [4] it was 54%; in data set [5] it was “Non-Toxic”; in data set [6], “Non-Toxic”. Besides, the Activity entry in data set [7] and in data set [8] was “Non-Toxic” in each case.

On to `CC1=C(C(=O)OC(C)C)C(c2ccc3c(c2)OCCO3)C(C(=O)OC(C)C)=C(C)N1`, for which the Activity in data set [1] was 28.8 g; in the data set on Mus musculus [2] it was 297.19 mg/dL; with Mus musculus [3], 0.34%; with Mus musculus [4] it was 1%; in data set [5], “Non-Toxic”; in data set [6], “Non-Toxic”. Besides, the Activity entry in data set [7] and in data set [8] was “Non-Toxic” in each case.

Consider `CC1=C(C(=O)OCc2ccccc2)C(c2ccc3c(c2)OCO3)C(C(=O)OCc2ccccc2)=C(C)N1`, for which the Activity in data set [1] worked out at 27 g; with Mus musculus [2], 185.3 mg/dL; in the data set on Mus musculus [3] it was 37.86%; with Mus musculus [4], 113%.

As for `CCOC(=O)C1=C(C)NC(C)=C(C(=O)OCc2ccccc2)C1c1cccc2c1OCO2` (centres undefined), the Activity is 27.2 g in data set [1]; 166.34 mg/dL with Mus musculus [2]; 44.22% in the data set with Mus musculus [3]; 132% with Mus musculus [4]; “Non-Toxic” in data set [5]; “Non-Toxic” in data set [6]. Besides, the Activity entry in data set [7] and in data set [8] was “Non-Toxic” in each case.

Turning to `COCCOC(=O)C1=C(C)NC(C)=C(C(=O)OCCOC)C1c1ccc2c(c1)OCO2`, the Activity in data set [1] turned out to be 27.4 g; in the data set with Mus musculus [2], 208.41 mg/dL; with Mus musculus [3], 30.11%; in the data set with Mus musculus [4], 90%.

Turning to `CCOC(=O)C1=C(C)NC(C)=C(C(=O)OC)C1c1cccc2c1OCO2` (centres undefined) [OXODIPINE], the Activity was 27.2 g in data set [1]; 108.4 mg/dL in the data set on Mus musculus [2]; 63.65% in the data set with Mus musculus [3]; 190% with Mus musculus [4]; “Non-Toxic” in data set [5]; “Non-Toxic” in data set [6]. Besides, the Activity entry in data set [7] and in data set [8] was “Non-Toxic” throughout.

For the compound `COC(=O)C1=C(C)NC(C)=C(C(=O)OCc2ccccc2)C1c1ccc2c(c1)OCO2` (centres undefined), the Activity in data set [1] was 27.4 g; with Mus musculus [2] it was 170.33 mg/dL; in the data set on Mus musculus [3] it was 42.88%; in the data set on Mus musculus [4], 128%; in data set [5], “Non-Toxic”; in data set [6], “Non-Toxic”. In addition, the Activity result in data set [7] and in data set [8] was “Non-Toxic” throughout.

For `COCCOC(=O)C1=C(C)NC(C)=C(C(=O)OCCOC)C1c1cccc2c1OCO2`, the Activity was 27 g in data set [1]; 208.41 mg/dL in the data set on Mus musculus [2]; 30.11% in the data set with Mus musculus [3]; 90% in the data set with Mus musculus [4]; “Non-Toxic” in data set [5]; “Non-Toxic” in data set [6]. In addition, the Activity entry in data set [7] and in data set [8] was “Non-Toxic” in each case.

As for `COCCOC(=O)C1=C(C)NC(C)=C(C(=O)OC)C1c1ccc2c(c1)OCO2` (centres undefined), the Activity in data set [1] was 28.6 g; with Mus musculus [2] it was 260.24 mg/dL; in the data set with Mus musculus [3] it was 12.73%; in the data set with Mus musculus [4] it was 38%; in data set [5], “Non-Toxic”; in data set [6] it was “Non-Toxic”. Besides, the Activity result in data set [7] and in data set [8] was “Non-Toxic” throughout.

Consider `COCCOC(=O)C1=C(C)NC(C)=C(C(=O)OC)C1c1cccc2c1OCO2` (centres undefined), for which the Activity in data set [1] was 28.3 g; in the data set with Mus musculus [2], 258.24 mg/dL; with Mus musculus [3], 13.4%; in the data set on Mus musculus [4], 40%; in data set [5] it was “Non-Toxic”; in data set [6], “Non-Toxic”. Also, the Activity entry in data set [7] and in data set [8] was “Non-Toxic” each time.

On to `CCOC(=O)C1=C(C)NC(C)=C(C(=O)OCC)C1c1ccc2c(c1)OCCO2`, for which the Activity was 26.8 g in data set [1]; 150.35 mg/dL with Mus musculus [2]; 49.58% with Mus musculus [3]; 148% with Mus musculus [4]; “Non-Toxic” in data set [5]; “Non-Toxic” in data set [6]. Further, the Activity result in data set [7] and in data set [8] was “Non-Toxic” in each case.

For the compound `CCOC(=O)C1=C(C)NC(C)=C(C(=O)OCCOC)C1c1cccc2c1OCO2` (centres undefined), the Activity in data set [1] was 27.2 g; with Mus musculus [2], 164.33 mg/dL; in the data set on Mus musculus [3], 44.89%; in the data set on Mus musculus [4], 134%; in data set [5], “Non-Toxic”; in data set [6] it was “Non-Toxic”. Also, the Activity entry in data set [7] and in data set [8] was “Non-Toxic” each time.

Turning to `COC(=O)C1=C(C)NC(C)=C(C(=O)OC)C1c1ccc2c(c1)OCCO2`, the Activity in data set [1] was 27.3 g; with Mus musculus [2], 153.21 mg/dL; in the data set with Mus musculus [3], 48.62%; with Mus musculus [4] it was 145%; in data set [5] it was “Non-Toxic”; in data set [6] it was “Non-Toxic”. In addition, the Activity entry in data set [7] and in data set [8] was “Non-Toxic” in each case.
